Data as given in US10010547B2 (CASCADIAN THERAPEUTICS, INC., priority 2014, dated 2018).
Structures can show the parent of a compound that is named as a salt. Where two headings read alike, the source gives them in different places.

Experiments:
MIA PaCa-2 cells = assay: Gemcitabine Combination Cell Assay (Cell Titer Glo); type: cell-based; details: for IC50: Homo sapiens; for 10xLS: approximate concentration of Chk1 inhibitor that results in a 10-fold reduction in the IC50 of gemcitabine alone; for 2xLS: approximate concentration of Chk1 inhibitor that results in a two-fold reduction in the IC50 of gemcitabine alone
How it was run: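 MIA PaCa-2 cells were treated 72 h with half-log dilutions of Chk1 inhibitor (top 3000 nM) and gemcitabine (top 100 nM), alone and in full matrix; viability by CellTiter-Glo luminescence. IC50s from four-parameter fit; Chk1 inhibitor concentrations giving two- and ten-fold lowering of gemcitabine IC50 were estimated.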

Chk-1 kinase = Chk-1 kinase (Homo sapiens (Human), UniProt O14757); assay: Chk-1 Kinase Inhibiting Activity (33P-ATP filter assay, CHKtide substrate); type: biochemical; details: against Chk-1 kinase; read-out: IC50
How it was run: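 Full-length N-terminal GST-tagged human Chk-1 from insect cells, 0.5 nM final, with 20 μM peptide substrate and 33P-ATP in HEPES pH 7.5 buffer with 1% DMSO. Reaction ran 120 minutes at room temperature; incorporated radioactivity captured on P81 filters and counted for IC50.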

[1] = Chk1 inhibitor alone, MIA PaCa-2 cells, 72 h, read-out: Chk1 IC50

Sequence of Chk-1 kinase (O14757 whole entry): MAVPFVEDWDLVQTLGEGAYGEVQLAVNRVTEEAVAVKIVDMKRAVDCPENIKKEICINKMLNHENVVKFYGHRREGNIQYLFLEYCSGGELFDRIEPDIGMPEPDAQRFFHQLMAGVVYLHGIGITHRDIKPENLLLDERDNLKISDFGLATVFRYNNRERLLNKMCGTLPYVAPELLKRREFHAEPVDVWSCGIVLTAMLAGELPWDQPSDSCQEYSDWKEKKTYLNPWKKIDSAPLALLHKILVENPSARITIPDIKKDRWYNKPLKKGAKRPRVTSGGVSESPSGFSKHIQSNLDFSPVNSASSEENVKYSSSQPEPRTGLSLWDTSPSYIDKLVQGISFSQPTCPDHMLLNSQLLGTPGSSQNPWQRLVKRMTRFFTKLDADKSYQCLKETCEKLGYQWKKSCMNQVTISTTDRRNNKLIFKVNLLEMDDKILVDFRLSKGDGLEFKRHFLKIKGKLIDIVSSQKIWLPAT

| Compound | IC50 (MIA PaCa-2 cells; [1]) [nM] | IC50 (Chk-1 kinase) [nM] | 10xLS (MIA PaCa-2 cells; MIA PaCa-2 cells, 72 h) [nM] | 2xLS (MIA PaCa-2 cells; MIA PaCa-2 cells, 72 h) [nM] | IC50 (MIA PaCa-2 cells; MIA PaCa-2, 72 h, read-out: Chk1 IC50 (nM)) [nM] |
| --- | --- | --- | --- | --- | --- |
| COc1cc(C2CCN(C)CC2)c(Cl)cc1-c1cc(Nc2cnc(C#N)cn2)n[nH]1 [Example 67, 5-[[5-[5-chloro-2-methoxy-4-(1-methyl-4-piperidyl)phenyl]-1H-pyrazol-3-yl]amino]pyrazine-2-carbonitrile] | 1320 | 1.8 | 1000 | 100 | – |
| COc1cc(C2CCNCC2)c(Cl)cc1-c1cc(Nc2cnc(C#N)cn2)n[nH]1 [Example 68, 5-[[5-[5-chloro-2-methoxy-4-(4-piperidyl)phenyl]-1H-pyrazol-3-yl]amino]pyrazine-2-carbonitrile] | 1380 | 2.9 | 1000 | 100 | – |
| COc1c(-c2cc(Nc3cnc(C#N)cn3)n[nH]2)ccc(C2CCN(C)CC2)c1Cl [Example 69, 5-[[5-[3-chloro-2-methoxy-4-(1-methyl-4-piperidyl)phenyl]-1H-pyrazol-3-yl]amino]pyrazine-2-carbonitrile] | 2200 | 7.9 | 1000 | 100 | – |
| COc1c(-c2cc(Nc3cnc(C#N)cn3)n[nH]2)ccc(C2CCNCC2)c1Cl [Example 70, 5-[[5-[3-chloro-2-methoxy-4-(4-piperidyl)phenyl]-1H-pyrazol-3-yl]amino]pyrazine-2-carbonitrile] | 2620 | 10 | 3000 | 300 | – |
| COC(=O)c1cnc(Nc2cc(-c3ccc(C4CCNCC4)cc3OC)[nH]n2)cn1 [Example 71, methyl 5-[[5-[2-methoxy-4-(4-piperidyl)phenyl]-1H-pyrazol-3-yl]amino]pyrazine-2-carboxylate] | > 3000 | > 100 | >3000 | >3000 | – |
| COc1cc(NCC2CCOCC2)ccc1-c1cc(Nc2cnc(C#N)cn2)n[nH]1 [Example 74, 5-[[5-[2-methoxy-4-(tetrahydropyran-4-ylmethylamino)phenyl]-1H-pyrazol-3-yl]amino]pyrazine-2-carbonitrile] | 282 | 0.35 | 100 | 3 | – |
| COc1cc(OCC2CCOCC2)ccc1-c1cc(Nc2cnc(C#N)cn2)n[nH]1 [Example 75, 5-[[5-[2-methoxy-4-(tetrahydropyran-4-ylmethoxy)phenyl]-1H-pyrazol-3-yl]amino]pyrazine-2-carbonitrile] | > 3000 | 0.55 | >3000 | >3000 | – |
| COc1cc(C2(F)CCNCC2)ccc1-c1cc(Nc2cnc(C#N)cn2)n[nH]1 [Example 76, 5-[[5-[4-(4-fluoro-4-piperidyl)-2-methoxy-phenyl]-1H-pyrazol-3-yl]amino]pyrazine-2-carbonitrile] | 482 | 0.11 | 300 | 10 | – |
| COc1cc(N2CCN(C(C)C)CC2)ccc1-c1cc(Nc2cnc(C#N)cn2)n[nH]1 [Example 81, 5-[[5-[4-(4-isopropylpiperazin-1-yl)-2-methoxy-phenyl]-1H-pyrazol-3-yl]amino]pyrazine-2-carbonitrile] | 36 | 0.15 | <30 | <3 | – |
| COc1cc(N2CCCN(C(C)C)CC2)ccc1-c1cc(Nc2cnc(C#N)cn2)n[nH]1 [Example 84, 5-[[5-[4-(4-isopropyl-1,4-diazepan-1-yl)-2-methoxy-phenyl]-1H-pyrazol-3-yl]amino]pyrazine-2-carbonitrile] | 62 | 0.14 | <100 | <3 | – |
| COc1cc(C2(F)CCN(C(C)C)CC2)ccc1-c1cc(Nc2cnc(C#N)cn2)n[nH]1 [Example 86, 5-[[5-[4-(4-fluoro-1-isopropyl-4-piperidyl)-2-methoxy-phenyl]-1H-pyrazol-3-yl]amino]pyrazine-2-carbonitrile] | 239 | 0.12 | <100 | <3 | – |
| CCN1CCC(c2ccc(-c3cc(Nc4cnc(C#N)cn4)n[nH]3)c(OC)c2)C(F)C1 (centres unmarked) [Example 87, 5-[[5-[4-(1-ethyl-3-fluoro-4-piperidyl)-2-methoxy-phenyl]-1H-pyrazol-3-yl]amino]pyrazine-2-carbonitrile hydrochloride] | – | 0.059 | 300 | 10 | 540 |
| COc1cc(C2CCN(C(C)C)CC2F)ccc1-c1cc(Nc2cnc(C#N)cn2)n[nH]1 (centres unmarked) [Example 88, 5-[[5-[4-(3-fluoro-1-isopropyl-4-piperidyl)-2-methoxy-phenyl]-1H-pyrazol-3-yl]amino]pyrazine-2-carbonitrile] | 424 | 0.079 | 300 | 10 | – |
| COCCN1CCC(c2ccc(-c3cc(Nc4cnc(C#N)cn4)n[nH]3)c(OC)c2)CC1 [Example 89, 5-[[5-[2-methoxy-4-[1-(2-methoxyethyl)-4-piperidyl]phenyl]-1H-pyrazol-3-yl]amino]pyrazine-2-carbonitrile] | 193 | 0.051 | 100 | <3 | – |

The next lines start with results.

| IC50 (MIA PaCa-2 cells; [1]) [nM] | IC50 (Chk-1 kinase) [nM] | Compound | 10xLS (MIA PaCa-2 cells; MIA PaCa-2 cells, 72 h) [nM] | 2xLS (MIA PaCa-2 cells; MIA PaCa-2 cells, 72 h) [nM] | IC50 (MIA PaCa-2 cells; MIA PaCa-2, 72 h, read-out: Chk1 IC50 (nM)) [nM] |
| --- | --- | --- | --- | --- | --- |
| 144 | 0.022 | COc1cc(C2CN(C)C2)ccc1-c1cc(Nc2cnc(C#N)cn2)n[nH]1 [Example 65, 5-[[5-[2-methoxy-4-(1-methylazetidin-3-yl)phenyl]-1H-pyrazol-3-yl]amino]pyrazine-2-carbonitrile] | <100 | 3 | – |
| 111 | 0.14 | COc1cc(C2(F)CN(C)C2)ccc1-c1cc(Nc2cnc(C#N)cn2)n[nH]1 [Example 66, 5-[[5-[4-(3-fluoro-1-methyl-azetidin-3-yl)-2-methoxy-phenyl]-1H-pyrazol-3-yl]amino]pyrazine-2-carbonitrile] | 30 | <3 | – |
| 173 | 0.16 | COc1cc(CNC2CCOC2)ccc1-c1cc(Nc2cnc(C#N)cn2)n[nH]1 (centres unmarked) [Example 72, 5-[[5-[2-methoxy-4-[(tetrahydrofuran-3-ylamino)methyl]phenyl]-1H-pyrazol-3-yl]amino]pyrazine-2-carbonitrile] | 100 | 10 | – |
| 354 | 0.28 | COc1cc(CN(C)C2CCOC2)ccc1-c1cc(Nc2cnc(C#N)cn2)n[nH]1 (centres unmarked) [Example 73, 5-[[5-[2-methoxy-4-[[methyl(tetra hydrofuran-3-yl)amino]methyl]phenyl]-1H-pyrazol-3-yl]amino]pyrazine-2-carbonitrile] | 300 | 10 | – |
| 164 | 0.14 | COc1cc(C2(F)CNC2)ccc1-c1cc(Nc2cnc(C#N)cn2)n[nH]1 [Example 77, 5-[[5-[4-(3-fluoroazetidin-3-yl)-2-methoxy-phenyl]-1H-pyrazol-3-yl]amino]pyrazine-2-carbonitrile] | <100 | <3 | – |
| 136 | 0.69 | COc1cc(O[C@@H]2CCN(C)C2)ccc1-c1cc(Nc2cnc(C#N)cn2)n[nH]1 [Example 78, 5-[[5-[2-methoxy-4-[(3R)-1-methylpyrrolidin-3-yl]oxy-phenyl]-1H-pyrazol-3-yl]amino]pyrazine-2-carbonitrile] | 100 | 10 | – |
| 478 | 0.4 | COc1cc(N2CCOCC2)ccc1-c1cc(Nc2cnc(C#N)cn2)n[nH]1 [Example 79, 5-[[5-(2-methoxy-4-morpholino-phenyl)-1H-pyrazol-3-yl]amino]pyrazine-2-carbonitrile] | 100 | 3 | – |
| 36 | 0.19 | CCN1CCN(c2ccc(-c3cc(Nc4cnc(C#N)cn4)n[nH]3)c(OC)c2)CC1 [Example 80, 5-[[5-[4-(4-ethylpiperazin-1-yl)-2-methoxy-phenyl]-1H-pyrazol-3-yl]amino]pyrazine-2-carbonitrile] | 10 | <3 | – |
| 74 | 0.016 | COc1cc(N2CCN[C@H](C)C2)ccc1-c1cc(Nc2cnc(C#N)cn2)n[nH]1 [Example 82, 5-[[5-[2-methoxy-4-[(3R)-3-methylpiperazin-1-yl]phenyl]-1H-pyrazol-3-yl]amino]pyrazine-2-carbonitrile] | <30 | <3 | – |
| 107 | 0.11 | CCN1CCCN(c2ccc(-c3cc(Nc4cnc(C#N)cn4)n[nH]3)c(OC)c2)CC1 [Example 83, 5-[[5-[4-(4-ethyl-1,4-diazepan-1-yl)-2-methoxy-phenyl]-1H-pyrazol-3-yl]amino]pyrazine-2-carbonitrile] | <100 | <3 | – |
| 138 | 0.25 | CCN1CCC(F)(c2ccc(-c3cc(Nc4cnc(C#N)cn4)n[nH]3)c(OC)c2)CC1 [Example 85, 5-[[5-[4-(1-ethyl-4-fluoro-4-piperidyl)-2-methoxy-phenyl]-1H-pyrazol-3-yl]amino]pyrazine-2-carbonitrile] | 100 | 3 | – |
| 390 | 0.058 | CCNCc1ccc(-c2cc(Nc3cnc(C#N)cn3)n[nH]2)c(OC)c1 [Example 90, 5-[[5-[4-(ethylaminomethyl)-2-methoxy-phenyl]-1H-pyrazol-3-yl]amino]pyrazine-2-carbonitrile] | <300 | 10 | – |
